Test results published in US20250353825A1, “CANNABICYCLOL DERIVATIVES AND PREPARATION METHODS THEREOF” (priority 2023, published 2025).
Like-named read-outs stand apart in the source and are kept apart here.

Legend:
Assay type in all cases: cell-based
[1] = test system: GSC-3 (3#-GSC); assay: MTS cell viability assay, glioblastoma stem cells GSC-3 (3#-GSC)
Procedure: (§1) Primary viability screening: (1) the synthesized compounds 3a to 13d were respectively dissolved in DMSO to prepare a 40 μg/mL cannabicyclol and cannabicyclol derivative solutions.
(§2) (2) A control group: a 200 μL DMSO solvent.
(§3) (3) The solutions of compounds 3a to 13d were diluted in a twofold gradient to obtain cannabicyclol and cannabicyclol derivative solutions at concentrations of 40 μg/mL, 20 μg/mL, 10 μg/mL, 5 μg/mL, 2.5 μg/mL, 1.25 μg/mL, and 0.625 μg/mL, and 0.3125 μg/mL, respectively.
(§4) (4) Three glioblastoma stem cells (GSC-3, GSC-12, and GSC-18), three pancreatic cancer cell-derived stem cells (PANC-1-CSC, BXPC-3-CSC, and ASPC1-CSC), three liver cancer cell-derived stem cells (HepG2-CSC, MHCC97H-CSC, and SMMC7721-CSC), HEK-293T cells, 16 tumor cells (U251, U87, T98G, PANC1, BXPC3, ASPC1, HepG2, MHCC97H, SMMC7721, PC3, SKOV3, MDA-MB231, A549, HCT116, HEC-1B, MKN28), and differentiated glioblastoma stem cells (GSC-3diff and GSC-12diff) derived from GSC-3 and GSC-12 (all of the cells were provided by the Laboratory of Tumor Animal Model Preparation and Application Research, West China Hospital, Sichuan University) were inoculated into a 96-well plate at a concentration of 2×10^4 cells/well, and 100 μL of culture medium was then added to each well;
(§5) (5) 2) HEK-293T, GSC-3diff, GSC-12diff, and the 16 tumor cells were added with DMEM, 10% FBS, and 1% double antibody culture medium. Cancer stem cells (CSCs) were added with serum-free stem cell medium consisting of DMEM/F12, EGF (20 ng/mL), bFGF (20 ng/mL), B27 (1×), and 1% double antibody culture medium.
(§6) (6) Inoculated cells were put into a cell culture incubator for 24 hours, and after the cells were well adhered to the wall, the culture medium in the 96-well plate was discarded.
(§7) (7) 200 μL cannabicyclol and cannabicyclol derivatives solutions at different concentrations were added to the cultured cells.
(§8) (8) The experiment was set up with 3 replicates.
(§9) (9) The 96-well plate was placed in a cell culture incubator, and incubation was continued at 37° C. and 5% CO2 for 72 hours. Then, 100 μL of cannabicyclol and cannabicyclol derivative solution per well was discarded (100 μL of DMSO solvent was discarded for the control group), and 20 μL of LMTS (CellTiter AQueous Non-Radioactive Cell Proliferation Assay, #G3581) was mixed and continued to be placed in the cell incubator for 2 hours of incubation.
(§10) (10) The absorbance value at 490 nm was measured on an enzyme labeling apparatus, and the IC50 value was calculated.

[2] = test system: U251; assay: MTS cell viability assay, U251
Procedure: as §1, §2, §3, §4, §5, §6, §7, §8, §9, §10

[3] = MTS cell viability assay, HEK-293T (293T) normal cells; details: human
Procedure: as §1, §2, §3, §4, §5, §6, §7, §8, §9, §10

[4] = primary viability screening, 72 hours, MTS, test concentration not stated
[5] = primary viability screening, 72 hours, MTS, test concentration not stated, read-out: Cell viability in 293T (%)
[6] = HEK-293T (293T) normal cells, primary viability screening, 72 hours, MTS, test concentration not stated, read-out: Cell viability in 293T (%)

| Compound | Cell viability in 3#-GSC (%) ([1]; 72 h) | Cell viability in U251 (%) ([2]; human, 72 h) | viability at 72 h [3] [%] | Cell viability in 3#-GSC (%) [1, 4] [%] | Cell viability in U251 (%) [2, 4] [%] | viability at 72 h [3, 5] [%] | viability at 72 h [3, 6] [%] | selective anti-glioma stem cell viability ([1]; judged in words from preliminary viability screening against 3#-GSC, 293T and U251) |
| --- | --- | --- | --- | --- | --- | --- | --- | --- |
| CCCCCc1cc(OC(=O)CCCC[P+](c2ccccc2)(c2ccccc2)c2ccccc2)c2c(c1)OC1(C)CCC3C1C2C3(C)C (stereo not shown) [Compound 9s] | 40 | 17 | 21 | – | – | – | – | – |
| CCCCCc1cc(O)c2c(c1)OC1(C)CCC3C(CC)C2C31 (stereo not shown) [Compound 3v] | – | – | – | 30 | 71 | 79 | – | – |
| CC12CCC3C1C(c1c(O)cc(-c4ccccc4)cc1O2)C3(C)C (stereo not shown) [Compound 3k] | 52 | 15 | 45 | – | – | – | – | – |
| CCCCCc1cc(OC)c2c(c1)OC1(C)CCC3C1C2C3(C)C (stereo not shown) [Compound 7b] | – | – | – | ≥100 | 91 | – | 95 | – |
| CCCCCc1cc(OC(=O)/C=C/c2ccccc2)c2c(c1)OC1(C)CCC3C1C2C3(C)C (stereo not shown) [Compound 9g] | – | – | – | ≥100 | ≥100 | – | ≥ 100 | – |
| CCCCCc1cc(OC(=O)/C=C/c2ccc(OC)cc2)c2c(c1)OC1(C)CCC3C1C2C3(C)C (stereo not shown) [Compound 9h] | – | – | – | 90 | ≥100 | – | ≥ 100 | – |
| CCCCCCCCc1cc(O)c2c(c1)OC1(C)CCC3C1C2C3(C)C (stereo not shown) [Compound 3h] | – | – | – | 87 | 75 | – | 16 | – |
| COc1ccc(-c2cc(O)c3c(c2)OC2(C)CCC4C2C3C4(C)C)cc1 (stereo not shown) [Compound 3q] | 39 | 19 | 40 | – | – | – | – | – |
| CCCCCc1cc(OCc2cn(S(=O)(=O)c3ccc(C)cc3)nn2)c2c(c1)OC1(C)CCC3C1C2C3(C)C (stereo not shown) [Compound 7i] | – | – | – | 50 | 21 | – | 71 | – |
| CCCCCc1cc(OCC(=O)NCCc2cc3ccccc3[nH]2)c2c(c1)OC1(C)CCC3C1C2C3(C)C (stereo not shown) [Compound 7h] | – | – | – | 72 | ≥100 | – | 87 | – |
| CCCCCCCCCCCCCc1cc(O)c2c(c1)OC1(C)CCC3C1C2C3(C)C (stereo not shown) [Compound 3i] | – | – | – | 33 | 79 | – | 8 | – |
| CCCCCc1cc(OC(=O)Cc2ccc3ccccc3c2)c2c(c1)OC1(C)CCC3C1C2C3(C)C (stereo not shown) [Compound 9e] | – | – | – | ≥100 | ≥100 | – | ≥ 100 | – |
| Cc1ccccc1-c1cc(O)c2c(c1)OC1(C)CCC3C1C2C3(C)C (stereo not shown) [Compound 3n] | 41 | 17 | 50 | – | – | – | – | – |
| CC12CCC3C1C(c1c(O)cccc1O2)C3(C)C (stereo not shown) [Compound 3b] | – | – | – | 32 | 97 | 97 | – | selective anti-glioma stem cell viability |
| CCCCc1cc(O)c2c(c1)OC1(C)CCC3C1C2C3(C)C (stereo not shown) [Compound 3e] | – | – | – | 30 | 17 | – | 60 | – |
| Cc1ccc(-c2cc(O)c3c(c2)OC2(C)CCC4C2C3C4(C)C)cc1 (stereo not shown) [Compound 3l] | 51 | 45 | 62 | – | – | – | – | – |
| CCCCCc1cc(OC(=O)CCCCOc2cc(=O)oc3ccccc23)c2c(c1)OC1(C)CCC3C1C2C3(C)C (stereo not shown) [Compound 9t] | ≥100 | ≥100 | ≥ 100 | – | – | – | – | – |
| CCCCCc1cc(O)c2c(c1)OC1(C)CCC3C(C4CC4)C2C31 (stereo not shown) [Compound 3y] | – | – | – | 47 | 98 | – | ≥ 100 | – |
